Source: paper PMC11887451, “Leveraging Immunogenic Cell Death to Enhance the Immune Response against Malignant Pleural Mesothelioma Tumors” (Journal of the American Chemical Society, 2025)

Legend:
[1] = system: murine malignant mesothelioma cell line AB12; test: MTT cytotoxicity assay, 72 h, AB12; format: cell-based, mouse; conditions: exposure time 72 h
Description: (§1) Human malignant mesothelioma cancer cell lines JU77 and LO68 were obtained from Cell Bank Australia (Children's Medical Research Institute, Westmead, Australia). Mouse malignant mesothelioma cancer cell line AB12, human nonmalignant mesothelioma cancer cell line Met5A (mesothelial cells), mouse macrophage cell line J774 and human monocytic cell line THP-1 were obtained from American Type Culture Collection (ATCC) (Rockville, MD, USA). Human malignant mesothelioma cell lines VMC23 (epithelial), Meso82 (sarcomatous), Meso92 (biphasic), were kindly provided by Prof. Walter Berger (Medical University of Vienna). All cells except for J774 were cultured in RPMI and J774 cells were cultured in DMEM. Both types of media were supplemented with 10% FBS and 1% penicillin-streptomycin (10,000 U/mL). Cells were grown in tissue culture flasks (75 cm2 and 25 cm2, SPL Life Sciences Co., Ltd., Korea). All cell lines were grown at 37 °C in a humidified atmosphere of 95% air and 5% CO 2 and passaged when they reached 80–90% confluency. All Au stock solutions were prepared in 1% DMSO in the respected medium, ensuring that cell viability was not inhibited.
(§2) The cytotoxicity of compounds was determined using an MTT colorimetric test. The cells were harvested from culture flasks by trypsinization and seeded into Cellstar 96 -well microculture plates (Greiner Bio -One) at the seeding density of 6000 cells per well (6 × 10^4 cells/mL). After
(§3) the cells were allowed to resume exponential growth for 16 h, they were exposed to drugs at
(§4) different concentrations in media for 72 h. The drugs were diluted in a complete medium at the desired concentration added to each well (100 μL) and serially diluted in other wells. After exposure for 72 h, the media was replaced with MTT in media (5 mg/mL, 100 μL/well) and
(§5) incubated for an additional 50 min. Subsequently, the medium was aspirated, and the purple formazan crystals formed in viable cells were dissolved in DMSO (100 μL/well). Optical densities were measured at 570 nm using a BioTek Synergy H1 microplate and MultiskanTM SkyHigh plate readers. The quantity of viable cells was expressed in terms of treated/control (T/C) values in comparison to untreated control cells, and 50% inhibitory concentrations (IC 50) were calculated from concentration-effect curves by interpolation. An evaluation was based on means from at least three independent experiments, each comprising three replicat es per
(§6) DMSO had not impact on the cell viability at the concentrations used.

[2] = system: patient-derived Meso92 cell line (biphasic MPM); test: MTT cytotoxicity assay, 72 h, Meso92; format: cell-based, human; conditions: exposure time 72 h
[3] = system: patient-derived Meso84 cell line (sarcomatoid MPM); test: MTT cytotoxicity assay, 72 h, Meso84; format: cell-based, human; conditions: exposure time 72 h
[4] = system: human malignant mesothelioma cell line JU77; test: MTT cytotoxicity assay, 72 h, JU77; format: cell-based; conditions: exposure time 72 h
[5] = system: human malignant mesothelioma cell line LO68; test: MTT cytotoxicity assay, 72 h, LO68; format: cell-based; conditions: exposure time 72 h
[6] = system: human nonmalignant mesothelioma cell line Met5A; test: MTT cytotoxicity assay, 72 h, Met5A; format: cell-based; conditions: exposure time 72 h
[7] = system: AB12 cells phagocytosed by J774 macrophages; test: Phagocytosis assay, flow cytometry; format: cell-based, mouse; conditions: AB12 treated 100 min at 5 × IC50 (72 h), 16 h with J774 macrophages
Outline: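 AB12 cells labelled with CellTracker Red CMTPX and J774 macrophages with CellTracker Green CMFDA; AB12 cells drug-treated 100 min, then co-incubated with macrophages 16 h at 37°C. Phagocytosis % by flow cytometry as double-positive macrophages over total macrophages.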

[8] = system: patient-derived VMC23 cell line (epithelioid MPM); test: MTT cytotoxicity assay, 72 h, VMC23; format: cell-based, human; conditions: exposure time 72 h
Description: as §1, §2, §3, §4, §5, §6

Compound | IC50 ([1]; Mus musculus) | IC50 ([2]; Homo sapiens) | IC50 ([3]; Homo sapiens) | IC50 ([4]; Homo sapiens) | IC50 ([5]; Homo sapiens) | IC50 ([6]; Homo sapiens, MeT-5A) | phagocytosis / ICD response (in words) [7] | IC50 ([8]; Homo sapiens) | IC50 [1] | IC50 [2] | IC50 [3] | IC50 [4] | IC50 [5] | IC50 [6] | IC50 [8]
Nc1nc2[nH]cc(CCc3ccc(C(=O)N[C@@H](CCC(=O)O)C(=O)O)cc3)c2c(=O)[nH]1 [Pemetrexed, pemetrexed, reference compound] | 23 ± 7 nM | 140 ± 40 nM | 27 ± 2 nM | 73 ± 14 nM | 94 ± 28 nM | 300 ± 100 nM | failed to initiate any ICD response | 170 ± 40 nM | – | – | – | – | – | – | –
F[P-](F)(F)(F)(F)F.c1cc[c]2c(c1)Nc1cccc[n+]1[Au-]21[S]C(=[N+]2CCCCCC2)[S]1 (stereo not shown) [5G] | – | – | – | – | – | – | substantial phagocytosis | – | 330 ± 90 nM | 350 ± 40 nM | 300 ± 70 nM | 220 ± 40 nM | 430 ± 50 nM | 250 ± 50 nM | 730 ± 160 nM
